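Step 1: Grow cells in 96-well plates. Step 2: Expose to compound for 48 hours at 5 concentrations. Step 3: Interpolate endpoints linearly; if unreached, use highest concentration. The concentration for 50% growth inhibition is given as GI50.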 Activity calls are given as the source filed them. Rule as the data show it: active = GI50 up to about 1.1 µM and inactive = higher.
Legend:
Test in all cases: inhibition of tumour cell growth, NCI panel, 48 h
[1] = system: 786-0
[2] = system: A498
[3] = system: A549
[4] = system: ACHN
[5] = system: BT-549
[6] = system: CAKI-1
[7] = system: CCRF-CEM
[8] = system: COLO 205
[9] = system: DLD-1
[10] = system: DMS-114
[11] = system: DMS-273
[12] = system: DU-145
[13] = system: EKVX
[14] = system: HCC 2998
[15] = system: HCT-116
[16] = system: HCT-15
[17] = system: HL-60
[18] = system: HOP-18
[19] = system: HOP-62
[20] = system: HOP-92
[21] = system: HT-29
[22] = system: Hs-578T
[23] = system: IGROV-1
[24] = system: K562
[25] = system: KM-20L2
[26] = system: KM12
[27] = system: LOX IMVI
[28] = system: LXFL 529
[29] = system: M14
[30] = system: M19-MEL
[31] = system: MCF7
[32] = system: MDA-MB-231
[33] = system: MDA-MB-435
[34] = system: MDA-N
[35] = system: MOLT-4
[36] = system: Malme-3M
[37] = system: NCI-H226
[38] = system: NCI-H23
[39] = system: NCI-H460
[40] = system: NCI-H522
[41] = system: OVCAR-3
[42] = system: OVCAR-4
[43] = system: OVCAR-5
[44] = system: OVCAR-8
[45] = system: PC-3
[46] = system: RPMI-8226
[47] = system: RXF 393
[48] = system: RXF 631
[49] = system: SF-268
[50] = system: SF-295
[51] = system: SF-539
[52] = system: SK-MEL-28
[53] = system: SK-MEL-2
[54] = system: SK-MEL-5
[55] = system: SK-OV-3
[56] = system: SN12C
[57] = system: SNB-19
[58] = system: SNB-75
[59] = system: SNB-78
[60] = system: SR
[61] = system: SW-620
[62] = system: T47D
[63] = system: TK-10
[64] = system: U-251
[65] = system: UACC-257
[66] = system: UACC-62
[67] = system: UO-31
[68] = system: XF498

CC(=O)Oc1cccc2c1C(=O)C(Br)(Br)CCC2
GI50 [1]: 5.32 µM (inactive)
GI50 [2]: 19 µM (inactive)
GI50 [3]: 17.7 µM (inactive)
GI50 [4]: 6.38 µM (inactive)
GI50 [5]: 2.14 µM (inactive)
GI50 [6]: 6.62 µM (inactive)
GI50 [7]: 1.34 µM (inactive)
GI50 [8]: 6.52 µM (inactive)
GI50 [9]: 10.1 µM (inactive)
GI50 [10]: 2.54 µM (inactive)
GI50 [11]: 3.75 µM (inactive)
GI50 [12]: 13.7 µM (inactive)
GI50 [13]: 11 µM (inactive)
GI50 [14]: 15.3 µM (inactive)
GI50 [15]: 3.26 µM (inactive)
GI50 [16]: 5.12 µM
GI50 [17]: 2.38 µM (inactive)
GI50 [18]: 18.2 µM (inactive)
GI50 [19]: 14.4 µM (inactive)
GI50 [20]: 2.93 µM (inactive)
GI50 [21]: 5.55 µM (inactive)
GI50 [22]: 7.38 µM (inactive)
GI50 [23]: 13.5 µM (inactive)
GI50 [24]: 3.3 µM (inactive)
GI50 [25]: 8.05 µM (inactive)
GI50 [26]: 8.49 µM (inactive)
GI50 [27]: 2.17 µM (inactive)
GI50 [28]: 6.55 µM (inactive)
GI50 [29]: 2.51 µM (inactive)
GI50 [30]: 7.28 µM (inactive)
GI50 [31]: 2.29 µM (inactive)
GI50 [32]: 2.38 µM (inactive)
GI50 [33]: 3.56 µM (inactive)
GI50 [34]: 2.89 µM (inactive)
GI50 [35]: 1.11 µM (active)
GI50 [36]: 4.07 µM (inactive)
GI50 [37]: 6.68 µM (inactive)
GI50 [38]: 4.29 µM (inactive)
GI50 [39]: 17.3 µM (inactive)
GI50 [40]: 1.87 µM (inactive)
GI50 [41]: 6.97 µM (inactive)
GI50 [42]: 1.83 µM (inactive)
GI50 [43]: 7.6 µM (inactive)
GI50 [44]: 4.38 µM (inactive)
GI50 [45]: 3.96 µM (inactive)
GI50 [46]: 2.22 µM (inactive)
GI50 [47]: 6.24 µM (inactive)
GI50 [48]: 17.4 µM (inactive)
GI50 [49]: 8.34 µM (inactive)
GI50 [50]: 17.5 µM (inactive)
GI50 [51]: 9.31 µM (inactive)
GI50 [52]: 10.5 µM (inactive)
GI50 [53]: 9.23 µM (inactive)
GI50 [54]: 4.41 µM (inactive)
GI50 [55]: 10.1 µM (inactive)
GI50 [56]: 5.86 µM (inactive)
GI50 [57]: 11.1 µM (inactive)
GI50 [58]: 6.1 µM (inactive)
GI50 [59]: 17.3 µM (inactive)
GI50 [60]: 1.77 µM (inactive)
GI50 [61]: 2.81 µM (inactive)
GI50 [62]: 2.53 µM (inactive)
GI50 [63]: 16.9 µM (inactive)
GI50 [64]: 9.62 µM (inactive)
GI50 [65]: 10.9 µM (inactive)
GI50 [66]: 7.76 µM (inactive)
GI50 [67]: 9.46 µM (inactive)
GI50 [68]: 11.2 µM (inactive)

CN(C)CCC1(C2=CCCC2)CC/C(=C\c2ccc(Cl)cc2)C1=O (configuration not stated)
GI50 [1]: 4.04 µM (inactive)
GI50 [2]: 6.25 µM (inactive)
GI50 [3]: 12.4 µM (inactive)
GI50 [4]: 11.5 µM (inactive)
GI50 [6]: 7.03 µM (inactive)
GI50 [7]: 2.38 µM (inactive)
GI50 [8]: 12.4 µM (inactive)
GI50 [9]: 7.29 µM (inactive)
GI50 [10]: 6.27 µM (inactive)
GI50 [11]: 10.8 µM (inactive)
GI50 [13]: 7.16 µM (inactive)
GI50 [14]: 7.82 µM (inactive)
GI50 [15]: 8.77 µM (inactive)
GI50 [16]: 5.07 µM
GI50 [17]: 1.6 µM (inactive)
GI50 [18]: 11.9 µM (inactive)
GI50 [19]: 16.9 µM (inactive)
GI50 [20]: 3.89 µM (inactive)
GI50 [21]: 2.95 µM (inactive)
GI50 [23]: 7.14 µM (inactive)
GI50 [24]: 2.58 µM (inactive)
GI50 [25]: 2.43 µM (inactive)
GI50 [26]: 9.91 µM (inactive)
GI50 [27]: 10.1 µM (inactive)
GI50 [28]: 8.95 µM (inactive)
GI50 [29]: 2.01 µM (inactive)
GI50 [30]: 5.22 µM (inactive)
GI50 [35]: 2.24 µM (inactive)
GI50 [36]: 6.56 µM (inactive)
GI50 [37]: 14.2 µM (inactive)
GI50 [38]: 14.5 µM (inactive)
GI50 [39]: 10.9 µM (inactive)
GI50 [40]: 6.68 µM (inactive)
GI50 [41]: 13.7 µM (inactive)
GI50 [42]: 9.46 µM (inactive)
GI50 [43]: 12.9 µM (inactive)
GI50 [44]: 12.3 µM (inactive)
GI50 [46]: 5.73 µM (inactive)
GI50 [47]: 2.31 µM (inactive)
GI50 [48]: 8.69 µM (inactive)
GI50 [49]: 11.8 µM (inactive)
GI50 [50]: 7.82 µM (inactive)
GI50 [51]: 12.7 µM (inactive)
GI50 [52]: 2.49 µM (inactive)
GI50 [53]: 4.45 µM (inactive)
GI50 [54]: 1.99 µM (inactive)
GI50 [55]: 6.93 µM (inactive)
GI50 [56]: 11.9 µM (inactive)
GI50 [57]: 11.3 µM (inactive)
GI50 [58]: 6.85 µM (inactive)
GI50 [59]: 9.59 µM (inactive)
GI50 [60]: 4.51 µM (inactive)
GI50 [61]: 9.4 µM (inactive)
GI50 [63]: 11.1 µM (inactive)
GI50 [64]: 8.87 µM (inactive)
GI50 [65]: 2.92 µM (inactive)
GI50 [66]: 3.08 µM (inactive)
GI50 [67]: 5.33 µM (inactive)
GI50 [68]: 6.11 µM (inactive)
